Some test systems named below: UO-31; HOP-62; NCI-H23; UACC-257; OVCAR-3; DU-145; SW-620; HL-60; M14; MCF7; RXF 393; SK-MEL-2; A498; SF-539; TK-10; SNB-75; OVCAR-8; MOLT-4; ACHN; SK-MEL-5.
Assay in all cases: NCI-60 cell line screen, 48 h

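1) Cells in 96-well plates. 2) Compound, 48 h, 5 concentrations. 3) Linear interpolation between surrounding doses. 4) Unreached endpoint = highest concentration. Here, GI50 denotes the concentration required for 50% inhibition of growth.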 Activity calls are given as the source filed them. Rule as the data show it: active = GI50 up to about 1.1 µM and inactive = higher. A value given as a limit tells only on which side of the number the result lay.

In the case of `Nc1nc(Cl)cc(NCC2(CO)CCCCC2)n1`, the GI50 was > 100 µM (inactive) with UO-31; > 100 µM (inactive) in the assay on HOP-62; 48.9 µM (inactive) with NCI-H23; 64.7 µM (inactive) in the assay on UACC-257; > 100 µM (inactive) in the assay with OVCAR-3; > 100 µM (inactive) in the assay with DU-145. Besides, the GI50 in the assay on SW-620 was > 100 µM (inactive); with HL-60 it was > 100 µM (inactive); in the assay with M14 it was > 100 µM (inactive); with MCF7 it was 97.9 µM (inactive); in the assay with RXF 393, > 100 µM (inactive); in the assay with SK-MEL-2, > 100 µM (inactive). The GI50 with A498 was 70.8 µM (inactive); in the assay with SF-539 it was > 100 µM (inactive); with TK-10 it was > 100 µM (inactive); in the assay on SNB-75, > 100 µM (inactive); with OVCAR-8 it was > 100 µM (inactive); in the assay on MOLT-4, 59.4 µM (inactive). Moreover, the GI50 in the assay with ACHN was > 100 µM (inactive); with SK-MEL-5, 44 µM (inactive).
On to `CCOC(=O)/C(C(N)=O)=C(O)/C(O)=C(\Br)C(=O)c1ccccc1`, for which the GI50 in the assay on UO-31 is 18.9 µM (inactive); with HOP-62, 20.5 µM (inactive); with NCI-H23, 18.8 µM (inactive); in the assay with UACC-257 it was 17.9 µM (inactive); in the assay with OVCAR-3, 20.7 µM (inactive); with DU-145, 19.6 µM (inactive). The GI50 was 9.66 µM (inactive) in the assay with SW-620; 0.0622 µM (active) in the assay on HL-60; 14.6 µM (inactive) in the assay with M14; 17.7 µM (inactive) in the assay with MCF7; 15.6 µM (inactive) with RXF 393; 18.9 µM (inactive) with SK-MEL-2. The GI50 was > 100 µM (inactive) with A498; 18.5 µM (inactive) in the assay on SF-539; 19 µM (inactive) in the assay on TK-10; 17.3 µM (inactive) in the assay on SNB-75; 19.6 µM (inactive) in the assay with OVCAR-8; 2.99 µM (inactive) with MOLT-4. Besides, the GI50 in the assay on ACHN is 19.1 µM (inactive); in the assay with SK-MEL-5 it was 16.6 µM (inactive).

The values above are taken from ChEMBL document CHEMBL1201862, “PubChem BioAssay data set” (2004).
